Test results as given in PMC7367873, “Dissecting the sequence determinants for dephosphorylation by the catalytic subunits of phosphatases PP1 and PP2A” (Nature Communications, 2020).
Each block holds one substance with its values, some of them ahead of it.

Tests used:
[1] = tested on: GFP-14-3-3β; test: GFP-14-3-3β co-IP with LC-MS/MS, untreated GFP-14-3-3β versus GFP control (14-3-3 interactome); assay type: binding, human
Protocol: (§1) HeLa Kyoto cells expressing transiently transfected pEGFP(C1)-14-3-3β or pEGFP(C1) control plasmid, were incubated with 20 nM Calyculin A (# 9902 S, Cell Signaling Technology) for 12 min. Cells were washed twice on ice with cold PBS and after addition of 500 µL lysis buffer (100 mM NaCl, 10 mM Tris, 0.1% IGEPAL, 1 mM EDTA, 1 mM EGTA, 20 nM Calyculin A, 1x cOmplete Mini protease inhibitor cocktail (Sigma), 1 mM DTT, 1 mM MnCl2) cells were scraped from plates, lysed by 10 pushes through an injection needle (21 G, BD) and the insoluble fraction was pelleted by centrifugation (10 min, 10^4 rcf, 4 °C). Supernatants were then subjected to incubation with 1 µM recombinant phosphatase or buffer for 1 h at 30 °C. Next, we subjected samples to immunoprecipitation using α-GFP nanobodies covalently coupled to agarose beads (2 h, 4 °C, obtained from the EMBL PEPcore Core Facility). Beads were then washed three times with lysis buffer and samples were eluted in 1x LDS sample buffer (Thermo Fisher Scientific) by heating to 70 °C for 10 min.
(§2) The samples were then reduced with 25 mM dithiothreitol (10 min at 70 °C) and alkylated with 55 mM chloroacetamide (room temperature, 30 min, in the dark). Proteins were run on a precast 4–12% NuPAGE gel (ThermoFisher Scientific) for about 1 cm to concentrate the sample prior to in-gel tryptic digestion, which was performed according to the standard procedures. The peptides obtained were dried to completeness and resuspended in 12 µL of buffer A (0.1% FA), and 5 µL of sample were injected per MS measurement. The experiment was carried out in three independent replicates.
(§3) The samples were analyzed by LC-MS/MS on a Dionex Ultimate 3000 nano-HPLC coupled online to a Fusion Lumos Tribrid mass spectrometer (Thermo Fisher Scientific). Peptides were delivered to a trap column (75 µm × 2 cm, packed in-house with 5 µm C18 resin; Reprosil PUR AQ, Dr. Maisch) and washed using 0.1% FA at a flow rate of 5 µL/min for 10 min. Subsequently, peptides were transferred to an analytical column (75 µm × 45 cm, packed in-house with 3 µm C18 resin; Reprosil Gold) applying a flow rate of 300 nL/min and separated using a 60 min linear gradient from 4% to 32% LC solvent B (0.1% FA, 5% DMSO in ACN) in LC solvent A (0.1% FA in 5% DMSO). The eluate from the analytical column was sprayed via a stainless steel emitter (Thermo Fisher Scientific) at a source voltage of 2.1 kV into the mass spectrometer. The transfer capillary was heated to 275 °C. The Fusion Lumos was operated in positive ionization mode and data-dependent acquisition (DDA), automatically switching between MS1 and MS2 spectrum acquisition. Full scan MS1 spectra were recorded in the Orbitrap from 360 to 1300 m/z at a resolution of 60k (automatic gain control (AGC) target value of 4e5 charges, maximum injection time (maxIT) of 50 ms). Up to 20 peptide precursors were isolated (isolation window, 1.7 m/z; maximum injection time, 25 ms; and AGC value, 1e5), fragmented by high-energy collision-induced dissociation (HCD) using 30% normalized collision energy (NCE), and analyzed at a resolution of 15k in the Orbitrap. Precursor ions that were singly charged, unassigned, or with charge states >6+ were excluded. The dynamic exclusion duration of fragmented precursor ions was 20 s.
(§4) Peptide and protein identification and LFQ were performed using MaxQuant software (version 1.6.1.0)[64] by searching the data against all canonical protein sequences as annotated in the Swissprot reference database (human proteins only, 20193 entries, downloaded 22 March 2016, internally annotated with PFAM domains) using the embedded search engine Andromeda[65]. The MaxQuant search was performed using two variable modifications; oxidation of methionine and N-terminal protein acetylation. Carbamidomethylation on cysteines was specified as a fixed modification. Trypsin (Trypsin/P) was specified as the proteolytic enzyme with up to two allowed missed cleavage sites.

[2] = tested on: GFP-14-3-3β and its binding proteins; test: GFP-14-3-3β co-IP with LC-MS/MS label-free quantification, untreated versus PP1c-treated; set-up: species or system human
Protocol: as §1, §2, §3, §4

[3] = GFP-14-3-3β co-IP LC-MS/MS, untreated vs GFP, student's t-test, label-free quantification, 3 replicates each
[4] = GFP-14-3-3β co-IP LC-MS/MS, PP1 vs untreated, student's t-test, label-free quantification, 3 replicates each
[5] = untreated vs GFP, LFQ intensities, 3 replicates each
[6] = PP1 vs untreated, LFQ intensities, 3 replicates each
[7] = untreated vs GFP, LFQ intensities, replicates 1-3
[8] = PP1 vs untreated, LFQ intensities, replicates 1-3
[9] = log2 difference, pairwise comparison untreated vs GFP, label-free quantification, 3 replicates each
[10] = log2 difference, pairwise comparison PP1 vs untreated, label-free quantification, 3 replicates each
[11] = pairwise comparison untreated vs GFP
[12] = pairwise comparison PP1 vs untreated
[13] = pairwise comparison untreated GFP-14-3-3β vs GFP, student's t-test, 3 replicates each, LC-MS/MS label-free quantification
[14] = pairwise comparison PP1 vs untreated, student's t-test, 3 replicates each, LC-MS/MS label-free quantification
[15] = untreated vs GFP, label-free quantification
[16] = PP1 vs untreated, label-free quantification

Difference (log2), PP1 vs untreated [2, 4]: -0.4038 log2
Substance: AHNAK
Difference (log2), untreated vs GFP [1, 3]: -1.21 log2

Difference (log2), PP1 vs untreated [2, 6]: 0.4607 log2
Substance: LAMA5
Difference (log2), untreated vs GFP [1, 5]: -1.96 log2

Difference (log2), PP1 vs untreated [2, 6]: 0.5007 log2
Substance: PRRC2A
Difference (log2), untreated vs GFP [1, 5]: 0.07605 log2

Difference (log2), PP1 vs untreated [2, 4]: -0.2892 log2
Substance: RNF5
Difference (log2), untreated vs GFP [1, 3]: 0.3906 log2

Difference (log2), PP1 vs untreated [2, 8]: -0.7937 log2
Substance: HSPA1B;HSPA1A
Difference (log2), untreated vs GFP [1, 7]: 0.2148 log2

Difference (log2), PP1 vs untreated [2, 10]: 2.4595
Substance: FXR1
Difference (log2), untreated vs GFP [1, 9]: -1.238

Difference (log2), PP1 vs untreated [2, 12]: 0.0512 log2
Substance: MSH6
Difference (log2), untreated vs GFP [1, 11]: 1.062 log2

Difference (log2), PP1 vs untreated [2, 12]: 0.1332 log2
Substance: SUPT16H
Difference (log2), untreated vs GFP [1, 11]: 0.2233 log2

Difference (log2), PP1 vs untreated [2, 10]: 2.547
Substance: DPYSL3;CRMP1
Difference (log2), untreated vs GFP [1, 9]: -3.981

Difference (log2), PP1 vs untreated [2, 14]: -3.693 log2
Substance: MYCBP2
Difference (log2), untreated vs GFP [1, 13]: 7.929 log2

Difference (log2), PP1 vs untreated [2, 12]: -0.07001 log2
Substance: TJP1
Difference (log2), untreated vs GFP [1, 11]: 1.92 log2

Difference (log2), PP1 vs untreated [2, 8]: -1.861 log2
Substance: DOCK11
Difference (log2), untreated vs GFP [1, 7]: 2.579 log2

Difference (log2), PP1 vs untreated [2, 8]: -2.029 log2
Substance: RANBP2
Difference (log2), untreated vs GFP [1, 7]: 2.443 log2

Difference (log2), PP1 vs untreated [2, 6]: 0.6499 log2
Substance: RNF213
Difference (log2), untreated vs GFP [1, 5]: 0.8982 log2

Difference (log2), PP1 vs untreated [2, 16]: 1.148 log2
Substance: MED1
Difference (log2), untreated vs GFP [1, 15]: 0.09613 log2

Difference (log2), PP1 vs untreated [2, 8]: -1.354 log2
Substance: YWHAQ
Difference (log2), untreated vs GFP [1, 7]: 7.871 log2

Difference (log2), PP1 vs untreated [2, 6]: 0.3782 log2
Substance: CORO1C
Difference (log2), untreated vs GFP [1, 5]: -0.8872 log2

Difference (log2), PP1 vs untreated [2, 6]: 0.3561 log2
Substance: FASN
Difference (log2), untreated vs GFP [1, 5]: 1.462 log2

Difference (log2), PP1 vs untreated [2, 4]: -0.3658 log2
Substance: CHD4
Difference (log2), untreated vs GFP [1, 3]: 2.168 log2

Difference (log2), PP1 vs untreated [2, 14]: -4.48 log2
Substance: WWTR1
Difference (log2), untreated vs GFP [1, 13]: 5.399 log2

Difference (log2), PP1 vs untreated [2, 10]: 2.301
Substance: PCM1
Difference (log2), untreated vs GFP [1, 9]: -0.166

Difference (log2), PP1 vs untreated [2, 14]: -3.308 log2
Substance: TPM4
Difference (log2), untreated vs GFP [1, 13]: 0.1774 log2

Difference (log2), PP1 vs untreated [2, 4]: -0.4375 log2
Substance: SQSTM1
Difference (log2), untreated vs GFP [1, 3]: 0.1051 log2

Difference (log2), PP1 vs untreated [2, 8]: -1.929 log2
Substance: SMARCA5
Difference (log2), untreated vs GFP [1, 7]: 3.229 log2

Difference (log2), PP1 vs untreated [2, 8]: -1.298 log2
Substance: YWHAZ
Difference (log2), untreated vs GFP [1, 7]: 6.453 log2

Difference (log2), PP1 vs untreated [2, 8]: -1.535 log2
Substance: MLEC
Difference (log2), untreated vs GFP [1, 7]: 0.8854 log2

Difference (log2), PP1 vs untreated [2, 4]: -0.6422 log2
Substance: PCNT
Difference (log2), untreated vs GFP [1, 3]: 1.216 log2

Difference (log2), PP1 vs untreated [2, 16]: 0.8257 log2
Substance: FYN
Difference (log2), untreated vs GFP [1, 15]: -1.633 log2

Difference (log2), PP1 vs untreated [2, 4]: -0.6457 log2
Substance: NUP205
Difference (log2), untreated vs GFP [1, 3]: 1.662 log2

Difference (log2), PP1 vs untreated [2, 8]: -1.091 log2
Substance: HSPA9
Difference (log2), untreated vs GFP [1, 7]: -0.4978 log2

Difference (log2), PP1 vs untreated [2, 12]: 0.08295 log2
Substance: MTCL1
Difference (log2), untreated vs GFP [1, 11]: 0.986 log2

Difference (log2), PP1 vs untreated [2, 4]: -0.1729 log2
Substance: TUBB
Difference (log2), untreated vs GFP [1, 3]: -1.012 log2

Difference (log2), PP1 vs untreated [2, 16]: 1.198 log2
Substance: MYO5B
Difference (log2), untreated vs GFP [1, 15]: -1.223 log2

Difference (log2), PP1 vs untreated [2, 8]: -1.168 log2
Substance: HEATR1
Difference (log2), untreated vs GFP [1, 7]: 3.268 log2
